Consider ten molecules from patent US11414442B2, “ARF6 inhibitors and related methods” (Navigen, Inc., priority 2017, dated 2022).

Values joined by “and” are separate entries in the source; they are usually repeats but may differ in a detail not shown here. Equal entries are not always repeated. “Also recorded” adds a separate entry of the source. Where two headings read alike, the source gives them in different places. Where no end group is shown, it is not given here. The star is where a group is joined. Myristoyl = CCCCCCCCCCCCCC(=O)*

What is called solubility is the concentration that dissolves in the medium under given conditions. The term IC50 denotes the point on the concentration scale where inhibition reaches its midpoint.

For data set [1], the system named is LPS-induced endotoxic shock. Conditions: LPS 25 mg/kg IP, peptide IV; cited from earlier work.
The test system of a further data set is VE-cadherin. Conditions: cited from earlier work.
The subject of the next data set is vascular leak. The following applies: in vivo; cited from earlier work.
Data set [2] concerns the target T1, ARF6 (Homo sapiens, UniProt P62330). The following applies: HMVEC-D cells; cited from earlier work.
Data set [3] can be described thus: Solubility of ARF6 prodrugs in various vehicles (Table 4). In kind it is physicochemical.
Data set [4] has as its target T1, ARF6. Put plainly: ARF6 inhibition, biochemical fluorometric nucleotide exchange assay. The text has this:
These ARF6 inhibitors were discovered using a high-throughput biochemical, fluorometric nucleotide exchange assay to screen 100,000 compounds from a commercially available compound library. Medicinal chemistry optimization efforts have also been conducted. In some embodiments, the clinical potential of the discovered small molecule ARF6 inhibitors can be limited by poor solubility. Accordingly, the synthesis and development of water soluble prodrugs of ARF6 inhibitors can be advantageous. […]

Data set [5] has as its system Acinetobacter baumannii (AB) HUMC1. In kind it is in vivo, mouse. Here is the method: Briefly, CD-1 male mice were made neutropenic with 200 mg/kg cyclophosphamide and 250 mg/kg cortisone acetate (in 0.05% Tween 80) on Days −2 and +3. On Day 0, neutropenic mice were infected with Acinetobacter baumannii (AB) HUMC1 (virulent strain; see Luo G, et al. J Antimicrob Chemother. 2012; 67:1439-45 and Luo G, et al. PloS one. 2012; 7:e29446) via inhalation. Treatment with “NAV-” compound was initiated at three hours post infection.
Mice can be made neutropenic by injecting them with cyclophosphamide (200 mg/kg IP) and cortisone acetate (250 mg/kg, subcutaneously) on day −2 and +3 relative to infection. To induce AB pneumonia, neutropenic mice can be infected by aerosolizing AB into an inhalational chamber for one hour through a nebulizer as previously described (see Luo G, et al. J Antimicrob Chemother. 2012; 67:1439-45). Dosing and frequency of treatment can be dictated by the PK and ALI studies conducted in Example 6. Placebo mice can receive vehicle. […] Treatment can begin three hours after infection and continue through Day +7, and survival of mice (the primary endpoint) can be followed for 28 days post-infection. Each group may comprise 10 mice and each experiment may be repeated once (for a total of 20 mice per treatment group) to detect a three-day difference in survival by the Log Rank test (α=0.05).

The subject of data set [6] is LPS-induced acute lung injury (ALI). Put plainly: Mouse model of LPS-induced ALI, BALF cell count and BALF protein. It counts as in vivo. As for the experimental part: LPS was instilled into the trachea of anesthetized mice. […] The efficacy endpoints were total cell counts and total protein in BALF. All studies were conducted using vehicle negative controls and dexamethasone (5 mg/kg IP at T=0 and 6) as a positive control. Data were analyzed by 1-way ANOVA followed by Tukey's multiple comparison test (GRAPHPAD PRISM® software, version 6.05). […] Reductions in BALF total protein were also observed. […]

A short description of data set [7]: PK of NAV-A after IP dosing of NAV-B to mice. The following applies: six-hour period after IP NAV-B 43 mg/kg. In kind it is in vivo, mouse. Here is the method:
(§1) The PK profile of NAV-A was determined following intravenous (IV) and intraperitoneal (IP) administration of prodrug NAV-B to rats and mice, respectively. […] In this experiment, only the appearance and PK profile of NAV-A was followed, using an established LC/MS method. […] Of note was the very rapid appearance of NAV-A in plasma of the rats receiving NAV-B IV; the highest plasma concentration observed was at five minutes post-dose, the first time point measured. […] Near peak plasma levels of NAV-A were observed within 30 minutes.

The nature of data set [8]: PK of NAV-A after IV dosing of NAV-B to rats. It counts as in vivo, rat. Here is the method: as §1
A short description of data set [9]: Solubility in water and PBS pH 7.4 (Tables 1 and 2). In kind it is physicochemical.
For data set [10], the system named is multidrug-resistant Pseudomonas aeruginosa (PA). The experiment in a line: Multidrug-resistant Pseudomonas aeruginosa mouse model of pneumonia. In kind it is in vivo. The following applies: NAV-AAR′ 38 and 64 mg/kg subcutaneous once daily for 6 days. As for the experimental part:
NAV-AAR′ is also active in a multidrug-resistant Pseudomonas aeruginosa (PA) mouse model of pneumonia. […] NAV-AAR′ was administered by subcutaneous injection once daily for 6 days. The antibiotic meropenem was ineffective against MDR PA in this model.

Another data set concerns alkaline phosphatase. The experiment in a line: Alkaline phosphatase substrate. It counts as in vitro ADME. The following applies: metabolized to active metabolite NAV-AAC′.
A further data set is described as follows: Stability in solution. It counts as physicochemical. Conditions: room temperature, protected from light.
The mark [11] stands for this setting: 20 mM Na citrate buffer, pH 3.1, aqueous buffer, kinetic from dmso stock, diluted from 10 mM solution in DMSO, read-out: Solubility (μM) 20 mM Na Citrate, pH 3.1.
The mark [12] stands for this setting: water, kinetic from dmso stock, diluted from 10 mM solution in DMSO, read-out: Solubility (μM) H2O.
Setting [13] is: Table 1, water, read-out: Solubility Water.
Where [14] appears, read: aqueous buffer, Table 1, PBS pH 7.4, read-out: Solubility PBS pH 7.4.
The mark [15] stands for this setting: NAV-AAR′ 38 mg/kg or 64 mg/kg intravenous.

T1 sequence (P62330 whole entry, species assumed): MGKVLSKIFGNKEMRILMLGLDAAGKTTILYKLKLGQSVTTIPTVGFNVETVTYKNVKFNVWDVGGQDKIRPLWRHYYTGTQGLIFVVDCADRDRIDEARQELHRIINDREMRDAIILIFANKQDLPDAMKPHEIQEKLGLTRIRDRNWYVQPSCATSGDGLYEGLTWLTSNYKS

For “MyrARF6 2-13: myristoylated peptide composed of amino acids 2-13 of ARF6, understood to inhibit ARF nucleotide exchange (Myristoyl-GKVLSKIFGNKE; UniProt P62330 2-13, looked up, fragment)”, the survival during endotoxemia entry in data set [1] is “enhanced survival”. The “VE-cadherin at cell junctions” value in the data set on VE-cadherin is reported as “increased VE-cadherin at cell junctions”. For the same molecule, the “leak of Evans blue dye from the blood into lungs and kidneys” value with vascular leak is given as “prevented the leak”. Also, the ARF6 activation entry with ARF6 [2] is recorded as “reduced ARF6 activation”.

Regarding `C[C@H](N)C(=O)Oc1cc([N+](=O)[O-])ccc1-c1cc(=O)[nH]c2c(-c3ccc(Cl)cc3)c(Cc3ccccc3)nn12.O=C(O)C(F)(F)F` [Example V, [2-[2-Benzyl-3-(4-chlorophenyl)-5-oxo-4H-pyrazolo[1,5-a]pyrimidin-7-yl]-5-nitro-phenyl] (2S)-2-aminopropanoate trifluoroacetate], the solubility in data set [3] (setting [11]) was 160 µM; in data set [3] (0.1% Tween 80 in D5W, aqueous with cosolvent or surfactant or cyclodextrin, kinetic from dmso stock, diluted from 10 mM solution in DMSO, read-out: Solubility (μM) 0.1% Tween 80 in D5W) it was 5.4 µM; in data set [3] (DPBS, pH 7.4, aqueous buffer, kinetic from dmso stock, diluted from 10 mM solution in DMSO, read-out: Solubility (μM) DPBS, pH 7.4), under 1 µM; in data set [3] (saline or isotonic, thermodynamic from solid, D5W, prepared from powder, read-out: Solubility (μM) D5W Prepared from powder), 20 µM; in data set [3] (setting [12]), 150 µM. The IC50 on ARF6 [4] (Table 4, read-out: ARF6 inhibition IC50) came to 1900 nM.

Regarding `O=c1cc(-c2ccc([N+](=O)[O-])cc2O)n2nc(Cc3ccccc3)c(-c3ccc(Cl)cc3)c2[nH]1` [NAV-A, 2-Benzyl-3-(4-chlorophenyl)-7-(2-hydroxy-4-nitro-phenyl)-4H-pyrazolo[1,5-a]pyrimidin-5-one], the “appearance and weight gain of treated mice” value in [5] (NAV-A 30 mg/kg IP once daily) was “appeared healthy with normal weight gain”. Also, in data set [5] (NAV-A 30 mg/kg IP once daily for seven days, from 3 h post infection, DMA/PEG300 vehicle), the survival turned out to be 50%. The half-inhibitory concentration (IC50) at ARF6 [4] (Table 1, read-out: ARF6 IC50) stood at 2700 nM. In addition, the “percent reduction in LPS-induced increase in BALF cell count” value came out at 57 ± 9% in data set [6] (30 mg/kg IP, T = 0, mean ± SEM); 55 ± 3% in data set [6] (30 mg/kg IP, T = 3, mean ± SEM); 95 ± 4% in data set [6] (60 mg/kg IP, T = 0, mean ± SEM); 91 ± 1% in data set [6] (60 mg/kg IP, T = 3, mean ± SEM). The “percent reduction in LPS-induced increase in BALF protein” value was found to be 36 ± 13% in data set [6] (30 mg/kg IP, T = 0, mean ± SEM); 23 ± 12% in data set [6] (30 mg/kg IP, T = 3, mean ± SEM); 46 ± 24% in [6] (60 mg/kg IP, T = 0, mean ± SEM); 55 ± 6% in [6] (60 mg/kg IP, T = 3, mean ± SEM). Further, in data set [6] (NAV-A IP), the “BALF total protein” value was “Reductions”. Further, the “total number of cells in BALF” value in data set [6] (NAV-A IP 60 mg/kg (T=0), 30 mg/kg (T=3), 60 mg/kg (T=3)) is on record as “significant decreases”. Besides, the “plasma levels of NAV-A” value in data set [7] was “high and sustained plasma levels”. The “time of highest plasma concentration observed” value in data set [8] (NAV-A after IV NAV-B, rats, first time point measured) is recorded as “five”. Also, the “exposure of NAV-A” value in [8] (after administration of NAV-B) is listed as “excellent exposure”. For the same molecule, the solubility came to 35 µM in data set [9] (setting [13]) and 8 µM in data set [9] (setting [14]).

As for `C[C@@H](O)[C@H]1C(=O)N2C(C(=O)O)=C(S[C@@H]3CN[C@H](C(=O)N(C)C)C3)[C@H](C)[C@H]12` [meropenem, reference compound], in data set [10], the “survival in MDR PA pneumonia” value was “ineffective”.

Consider `NCC(=O)Oc1cc([N+](=O)[O-])ccc1-c1cc(=O)[nH]c2c(-c3ccc(Cl)cc3)c(Cc3ccccc3)nn12.O=C(O)C(F)(F)F` [Example III, [2-[2-Benzyl-3-(4-chlorophenyl)-5-oxo-4H-pyrazolo[1,5-a]pyrimidin-7-yl]-5-nitro-phenyl] 2-aminoacetate trifluoroacetate], for which the solubility stood at 325 µM in [3] (setting [11]) and 375 µM in data set [3] (setting [12]).

Take `C[C@@H]1C[C@H]2[C@@H]3CCC4=CC(=O)C=C[C@]4(C)[C@@]3(F)[C@@H](O)C[C@]2(C)[C@@]1(O)C(=O)CO` [DEX, dexamethasone, reference compound]: in [6] (dexamethasone 5 mg/kg IP at T=0 and 6, positive control in the experiments of the compound of that line, mean ± SEM), the “percent reduction in LPS-induced increase in BALF cell count, DEX” value is 64 ± 9% and 74 ± 5% and 63 ± 4% and 59 ± 5% and 70 ± 7%.

Turning to `O=c1cc(-c2ccccc2O)n2nc(C(F)(F)F)c(C3CCCCC3)c2[nH]1` [NAV-E], the IC50 at ARF6 [4] (Table 1, read-out: ARF6 IC50) was determined as 12000 nM. Besides, the solubility in [9] (setting [13]) was under 1 µM; in [9] (setting [14]), 68 µM.

On to `Cc1ccc(-c2c[nH]c3c(-c4ccc(Cl)cc4)c(Cc4ccccc4)nn3c2=O)c(OP(=O)([O-])[O-])c1.[Na+].[Na+]` [NAV-AAR′], for which the “substrate for alkaline phosphatase” value in the data set with alkaline phosphatase was “substrate for alkaline phosphatase”. Besides, the stable in solution result in the data set “Stability in solution” is reported as “up to 4 months”. Besides, the IC50 on ARF6 [4] (Table 2, read-out: ARF6 IC50) was in the range of 1000 to 2000 nM; at ARF6 [4] (approximately, read-out: ARF6 IC50) it was 1000 to 2000 nM. In [10], the “survival in MDR PA pneumonia” value is “improve survival; also recorded: increase in survival”. For the same molecule, the “number of total (nucleated) cells in BALF” value in data set [6] (setting [15]) is “significant reductions; also recorded: decrease”. The “protein concentration in BALF” value in [6] (setting [15]) is “significant reductions; also recorded: decrease”. Moreover, the solubility in the data set “Aqueous solubility” was at most 50 mg/mL; in data set [9] (Table 2, water, read-out: Solubility Water) it was over 50 mg/mL.

Turning to `NCCCC[C@H](N)C(=O)Oc1ccccc1-c1cc(=O)[nH]c2c(-c3ccc(Cl)cc3)c(Cc3ccccc3)nn12` [NAV-Y], the IC50 on ARF6 [4] (Table 1, read-out: ARF6 IC50) amounted to 30000 nM. Besides, the solubility in data set [9] (setting [13]) turned out to be 438 µM; in [9] (setting [14]), 144 µM.

With `N#Cc1ccc(-c2cc(=O)[nH]c3c(-c4ccc(Cl)c(Cl)c4)c(C4CC4)nn23)c(O)c1` [NAV-S], on ARF6 [4] (Table 1, read-out: ARF6 IC50), the IC50 was determined as 2000 nM. For the same molecule, the solubility was 10.2 µM in data set [9] (setting [13]) and 14 µM in data set [9] (setting [14]).
